# Assay results taken from US6953783B1, “Modulation of gene expression by combination therapy” (MethylGene, Inc., priority 1998, dated 2005).
# d = 2'-deoxy (DNA); m = 2'-O-methyl
# Tests used:
# [1] = system: Colo 205 human colon cancer cells; assay: Colo 205 tumor growth in nude mice; assay type: in vivo, BALB/c nude mice; conditions: i.v. daily for seven days; 0.5 mg/kg MG98 and/or 0.1 mg/kg 5-aza-dC
# Protocol: Eight to ten week old female BALB/c nude mice (Taconic Labs, Great Barrington, N.Y.) were injected subcutaneously in the flank area with 2×10^6 preconditioned Colo 205 human colon cancer cells (ATCC No. CCL-222). Preconditioning of these cells was done by a minimum of three consecutive tumor transplantations in the same strain of nude mice. Subsequently, tumor fragments of approximately 30 mgs were excised and implanted subcutaneously in mice, in the left flank area under Forene anesthesia (Abbott Labs., Geneva, Switzerland). […] Tumor volume was calculated according to standard methods every second day post infusion (see methods, e.g., in Meyer et al. (1989) Int. J. Cancer 43: 851-856).
# [2] = mammals; cited from earlier work
# [3] = system: p16 tumor suppressor; assay: Reactivation of p16 expression in T24 cells, oligonucleotide and/or 5-aza-dC (IP/Western, densitometry); assay type: cell-based, human; conditions: densitometry of FIG. 14 Western, 40 nM oligonucleotide and/or 0.1 μM 5-aza-dC
# Protocol: For this purpose, one day before transfection, T24 cells (ATCC No. HTB-4) were plated onto 10 cm plates at 4×10^5 cells/dish. At the time of transfection, cells were washed with phosphate buffered saline (PBS) and 5 ml of optimem media (Gibco-BRL) containing 6.25 μl/ml lipofectin transfection reagent (Gibco-BRL) was added. […] These oligonucleotides were chemically modified as follows: A equals 2'-deoxyriboadenosine; C equals 2'-deoxyribocytidine; G equals 2'-deoxyriboguanosine; T equals 2'-deoxyribothymidine; Aequals riboadenosine; U equals uridine; C equals ribocytidine; and G equals riboguanosine. The underlined bases were 2'-methoxyribose substituted nucleotides. Non-underlined bases indicate deoxyribose nucleosides. The backbone of each oligonucleotide consisted of a phosphorothioate linkage between adjoining nucleotides. The oligonucleotides were diluted to the desired concentration from a 0.1 mM stock solution in the transfection media. After a four-hour incubation at 37° C. in a 5% CO2 incubator, the plates were washed with PBS and 10 ml of fresh cell culture media was added. Following an additional two-hour incubation at 37° C., freshly prepared 5-aza-2'-deoxycytidine was added to the tissue culture medium. Cells were transfected for a total of three days and split every other day to ensure optimal transfection conditions. At the indicated time points, cells were harvested by trypsinization and pelleted by centrifugation at 1100 rpm and 4° C. for five minutes. The cell pellet was resuspended in PBS and counted on a Coulter Particle Counter to determine the total cell number. Following a second centrifugation, the PBS was aspirated from the cell pellet and the pellet was frozen at 70° C. […] The lysed cells were incubated on ice for 10 minutes and cell particulate matter was removed by centrifugation at 10,000 rpm for 10 minutes at 4° C. The protein concentration for each sample was determined using the Bio Rad Protein Assay and 600 μg of protein was used for each immunoprecipitation. […]
# [4] = molecular target: human DNA MeTase mRNA; assay: Antisense inhibition of DNA MeTase mRNA (screen of phosphorothioate oligonucleotides); assay type: cell-based
# Source text: As shown in FIG. 1 the two […] regions were identified to be highly sensitive to antisense inhibition were targeted by MG88 having the sequence [NT] ID NO:1) (this oligonucleotide is targeted to the […] 5'UTR at nucleotides 532 to 513) and MG98 having the sequence [NT] ID NO:2) (this oligonucleotide is targeted to the […] 3'UTR at nucleotides 5218 to 5199). These oligonucleotides were chemically modified as follows: A equals 2'-deoxyriboadenosine; C equals 2'-deoxyribocytidine; G equals 2'-deoxyriboguanosine; T equals 2'-deoxyribothymidine; A equals riboadenosine; U equals uridine; C equals ribocytidine; and G equals riboguanosine. The underlined bases were 2'-methoxyribose substituted nucleotides. Non-underlined bases indicate deoxyribose nucleosides. The backbone of each oligonucleotide consisted of a phosphorothioate linkage between adjoining nucleotides.
# [5] = system: DNA MeTase protein; assay: DNA MeTase protein levels by Western blotting in A549 cells; assay type: cell-based, human; conditions: 20, 40 or 80 nM with lipofectin, 4 h on day 0 and day 1, harvest day 2
# Source text: (§1) MG88 was next tested for an ability to inhibit DNA MeTase mRNA in two human neoplastic cells, A549 (human non-small cell lung carcinoma cells) and T24 (human bladder cancer cells). […] MG208 was modified as follows: A equals 2′-deoxyriboadenosine; C equals 2′-deoxyribocytidine; G equals 2′-deoxyriboguanosine; T equals 2′-deoxyribothymidine; A equals riboadenosine; U equals uridine; C equals ribocytidine; and G equals riboguanosine. The underlined bases were 2′-methoxyribose substituted nucleotides. Non-underlined bases indicate deoxyribose nucleosides. The backbone of MG208 consisted of a phosphorothioate linkage between adjoining nucleotides.
# The MG88 and MG208 oligonucleotides were diluted to the desired concentration from a 0.1 mM stock solution in the transfection media. Cells were exposed to oligonucleotide plus lipofectin (or lipofectin only) for four hours on day 0 and four hours on day 1 (after each four hour treatment, cells were returned to complete media). On day 2 (i.e., 48 hours after the first treatment on day 0), cells were harvested, whole cell lysates were prepared, and DNA MeTase protein levels were analyzed by Western blotting analysis with a DNA MeTase-specific rabbit polyclonal antibody (generated according to standard techniques of a glutathione S -transferase fusion protein containing the first 10 kDa amino terminus from DNA methyltransferase protein). […]
# [6] = system: p21^WAF1; assay: p21^WAF1 protein levels by Western blotting in T24 cells; assay type: cell-based, human; conditions: for p21^WAF1 protein level: 40 nM or 75 nM, 24 or 48 hours
# Protocol: Another member of the cyclin-dependent kinase inhibitor (CDKI) family, p21^WAF1, inhibits a wide range of cyclin/CDK complexes involved in G1 and S phase progression (Tam et al. (1994) Cancer Res. 54: 5816-5820; Baghdassarian and French (1996) Hematol. Cell Ther. 88: 313-323; Gotz et al. (1996) Oncogene 13: 391-398). […] To do this, DNA MeTase, p21^WAF1, and α-actin protein levels were measured by Western blotting analysis in T24 cells that had been treated for either 24 hours (i.e., one 4 hour transfection time) or 48 hours (i.e., two […] transfections 24 hours apart) with either 40 nM or 75 nM of either MG88 or MG208.
# T24 cells were also treated for 24 hours (i.e., four hour transfection) with lipofectin only, or lipofectin plus 20, 40, or 80 nM of MG88 or MG208. After treatment, cell lysates were prepared and analyzed by Western blotting analysis with α-actin-specific antibody or p21-specific antibody.
# [7] = system: DNA MeTase protein; assay: DNA MeTase protein levels by Western blotting in T24 cells; assay type: cell-based, human; conditions: for reduction in DNA MeTase protein levels: 20, 40 or 80 nM with lipofectin, 4 h on day 0 and day 1, harvest day 2
# Source text: as §1
# The MG88 and MG208 oligonucleotides were diluted to the desired concentration from a 0.1 mM stock solution in the transfection media. Cells were exposed to oligonucleotide plus lipofectin (or lipofectin only) for four hours on day 0 and four hours on day 1 (after each four hour treatment, cells were returned to complete media). On day 2 (i.e., 48 hours after the first treatment on day 0), cells were harvested, whole cell lysates were prepared, and DNA MeTase protein levels were analyzed by Western blotting analysis with a DNA MeTase-specific rabbit polyclonal antibody (generated according to standard techniques of a glutathione S -transferase fusion protein containing the first 10 kDa amino terminus from DNA methyltransferase protein). […] Equal loading of all lanes was confirmed by blotting for α-actin protein levels with an actin-specific rabbit polyclonal antibody (commercially available from Santa Cruz Biotech., Santa Cruz, Calif.).
# (§2) Next, to determine whether de novo methylation and silencing of the re-expressed p16^ink4A gene occurred when DNA MeTase returned to normal levels, T24 cells were transfected for 10 consecutive days with either 40 or 75 nM or MG88 or MG208. […] Cell lysates of the T24 cells transfected for ten days were analyzed by Western blotting analysis for expression of DNA MeTase protein,p16^ink4A protein, and actin protein (as a control for equal loading) 3, 5, and 7 days after MG88 transfection.
# [8] = system: p21^WAF1 mRNA; assay: RNase protection assay for p21 mRNA in T24 cells; assay type: cell-based, human; conditions: 40 nM, 24 or 48 hours
# Protocol: Next, to determine if p21^WAF1 was induced at the transcriptional level, RNase protection assay were performed on cells treated with 40 nM of either MG88 or MG208 for either 24 or 48 hours. Total cellular RNA was isolated from the cells and analysed for p21 mRNA, p27 mRNA, and p18 mRNA using the human cell cycle-2 (hcc-2) multiprobe RNase protection kit commercially available from PharMingen, San Diego, Calif.). RNA loading was determined to be equal using the signals from two housekeeping genes, L32 and GAPDH.
# [9] = system: p16^ink4A protein; assay: p16^ink4A protein by immunoprecipitation and Western blotting in T24 cells; assay type: cell-based, human; conditions: for induction of expression of p16^ink4A protein: 40 nM or 75 nM, 4 h each day up to 10 days
# Source text: The cyclin-dependent kinase inhibitor (CDKI) p16^ink4A regulates the transition from G1 to S-phases of the cell cycle (Serrano et al. (1993) Nature 366: 704-707). Inactivation of p16^ink4A is one of the most frequently observed abnormalities in human cancer (Serrano et al., supra). Transcriptional inactivation and associated hypermethylation of the p16^ink4A promote region have also been observed in virtually all types of cancer (Gonzales-Zulueta et al. (1995) Cancer Res. 55: 4531-4535; Merlo et al. (1995) Nat. Med. 7: 686-692; Costello et al. (1996) Cancer Res. 56: 2405-2410; Lo et al., Cancer Res. 56: 2721-2725). To investigate the effect of specifically reducing cellular DNA MeTase levels on the expression and methylation status of a silenced p16^ink4A gene, T24 human bladder cancer cells that contain a hypermethylated and silenced p16^ink4A gene were transfected with 40 nM or 75 nM MG88 or control oligonucleotide MG208 with 6.25 μg/ml lipofectin for four hours each day for up to 10 consecutive days. On days 3, 5, 8, and 10, p16^ink4A protein levels were then analyzed by immunoprecipitation followed by Western blotting analysis with a p16^ink4A protein-specific antibody (PharMingen). HeLa cells were used as a positive (+) control for p16^ink4A protein expression.
# as §2
# [10] = system: p16^ink4A promoter; assay: Methylation specific PCR and bisulfite genomic sequencing of the p16^ink4A promoter in T24 cells; assay type: cell-based, human; conditions: for demethylation of the p16^ink4A promoter region (MSP): treated 3, 5, 9 or 10 days
# Protocol: To identify changes in the methylation status of the p16^ink4A promoter induced by MG88 treatment, methylation specific PCR (MSP) and bisulfite genomic sequencing was performed as previously described ([…] et al. (1994) Nat. Gen. 8: 27-32; Frommer et al. (1991) Proc. Nat. Acad. Sci. USA 89: […]). […] Briefly, the Oncor p16 detection system was used (commercially available from Oncor, Gaithersburg, Md.). PCR was performed in a total volume of 25 μl under the following conditions: 100 ng bisulfate-treated DNA (Oncor),10 mM Tris-HCl, pH 8.3, […], 1.5 mM MgCl2, 250 μM dNTPs, 80 ng of each of the following primers ([NT] sense (SEQ ID NO: 79) and [NT] antisense (SEQ ID NO: 80)) and 1 unit of AmpliTaq Gold (Perkin-Elmer). The denaturation cycle was 95° C. for 12 min followed by 35 cycles at 95° C. for 45 seconds, 60° C. for 45 seconds, and 72° C. for 60 seconds, and an elongation cycle of 72° C. for 10 minutes. the PCR product (5 μl) was analyzed on a 2% agarose gel. The unmethylated (U) and demethylated (D) primers (commercially available from Oncor) were used at the same conditions as the specific primers.
# [11] = system: pRb; assay: Western blotting for phosphorylated pRb in T24 cells; assay type: cell-based, human; conditions: T24 cells reactivated to express p16^ink4A after transfection
# [12] = system: T24 cells; assay: T24 cell proliferation during and after treatment (cell counting); assay type: cell-based, human; conditions: for cell proliferation during treatment: days 0-5, relative to lipofectin
# Source text: To study the effect of specific inhibition of DNA MeTase on cell growth, cellular proliferation rates were monitored both during the treatment and post treatment periods to determine the duration of the effect. […] During and following treatment, cells were counted. […] To determine whether the transient re-expression of p16^ink4A and growth-inhibitory effects induced by short term treatment with MG88 were due to the expansion of a less affected (less demethylated) population of cells within the treated population, or to rapid inactivation of p16^ink4A after MG88 withdrawal, single cell clones were isolated after treatment. Several MG88 clones were, in fact, p16^ink4A negative, confirming that the MG88 treatment produced a mixed population of p16^ink4A positive and negative cells.
# [13] = system: thymidylate synthase; conditions: T24 cells; 25 or 50 nM, 72 hours
# Source text: After treatment, the cells were lysed and analyzed by Western blotting analysis for thymidylate synthase protein levels using a thymidylase synthase specific antibody (commercially available from Chemicon Int., Temecula, Calif.).
# [14] = after 10 day treatment with 40 nM
molecule,measurement,setting,value
"Nc1ncn([C@H]2C[C@H](O)[C@@H](CO)O2)c(=O)n1 [5-aza-dC, 5-aza-2′-deoxycytidine]",tumor volume,[1],showed less tumor volume increase
same,toxicity of threshold concentrations necessary to inhibit DNA methyltransferase activity,[2],toxic to mammals
same,"p16 expression, Percentage of HeLa Cell Control",[3],11
5′-UUCATG TCA GCC AAG GCC AC-3′ [MG98],tumor volume,[1],showed tumor volume increase
same,IC50,[4],45 nM
same,"p16 expression, Percentage of HeLa Cell Control",[3],4
5′-AAGCAT GAG CAC CGT TCUCC-3′ [MG88],reduction in DNA MeTase protein levels,[5],dose-dependent reduction in DNA MeTase protein levels
same,p21^WAF1 protein level,[6],increased directly with the reduction in DNA MeTase
same,"p21^WAF1 protein induction, dose response","[6]; 20, 40 or 80 nM, 24 hours",induced p21^WAF1 in a dose dependent fashion
same,reduction in DNA MeTase protein levels,[7],dose-dependent reduction in DNA MeTase protein levels
same,return of DNA MeTase protein to control levels post-treatment,[7]; [14],5 to 7 days
same,IC50,[4],40 nM
same,p21^WAF1 mRNA,[8],no increase in p21^WAF1 mRNA
same,induction of expression of p16^ink4A protein,[9],detected after 5 days of treatment
same,p16^ink4A protein level post-treatment,[9]; [14],barely detectable at day 7 post-treatment
same,demethylated CpG sites of p16^ink4A promoter (bisulfite sequencing),"[10]; T24 cells, day 5 of treatment, 15 sites in all",15 CpG sites
same,re-methylated sites of p16^ink4A promoter,"[10]; T24 cells, three days after cessation of treatment",13 of 15
same,demethylation of the p16^ink4A promoter region (MSP),[10]; T24 cells,occurred as early as day 3 of MG88 treatment
same,methylation of p16^ink4A promoter in positive clone C4-5,[10]; thirty days after a five day treatment (75 nM),completely non methylated at all CpG sites evaluated
same,phosphorylated forms of pRb,[11],decrease in the amount of phosphorylated forms of pRb
same,antiproliferative and cell death effect,"[12]; 75 nM, 10 consecutive days",significant antiproliferative and cell death inducing effect
same,cell proliferation during treatment,[12]; 75 nM,dramatically inhibited cell proliferation
same,persistence of inhibition of cell proliferation,[12]; after 5 day treatment with 75 nM,approximately one week post-treatment
5′ UUCATAACCTCAGCATUGUC 3′ [MG2605],thymidylate synthase protein level compared to lipofectin only,[13],diminished levels of thymidylate synthase protein
"5′ GUCUTAAGCTCAACATUCUA 3′ [MG2606, reference compound]",thymidylate synthase protein level compared to lipofectin only,[13],not
"5′-UUAATG TAA CCT AAG GUCAA-3′ (DNA UUAATGTAACCTAAGGUCAA; sugars from the 5' end m4 d12 m4, all phosphorothioate, methylation of C not given here) [MG207, negative control oligonucleotide]","p16 expression, Percentage of HeLa Cell Control",[3],1
"Nc1ncn([C@@H]2O[C@H](CO)[C@@H](O)[C@H]2O)c(=O)n1 [5-azaC, 5-aza-cytidine]",toxicity of threshold concentrations necessary to inhibit DNA methyltransferase activity,[2],toxic to mammals
"5′-AACGAT CAG GAC CCT TGUCC-3′ (DNA AACGATCAGGACCCTTGUCC; sugars from the 5' end m4 d12 m4, all phosphorothioate, methylation of C not given here) [MG208, mismatch control oligonucleotide, reference compound]",reduction in DNA MeTase protein levels,[5],not
same,p21^WAF1 protein level,[6],neither lipofectin nor MG208 had an effect
same,reduction in DNA MeTase protein levels,[7],not
same,induction of expression of p16^ink4A protein,[9],not detected
same,p16^ink4A methylation status (bisulfite sequencing),"[10]; T24 cells, days 3 and 5 of treatment",no effect on p16^ink4A methylation status
same,demethylation of the p16^ink4A promoter region (MSP),[10]; T24 cells,no effect on methylation of the p16^ink4A gene
same,cell proliferation during treatment,[12]; 75 nM,only minimal growth inhibition
